Earlier results on three compounds are cited in publication PMC9632963, “Preclinical characterization and phase I clinical trial of CT053PTSA targets MET, AXL, and VEGFR2 in patients with advanced solid tumors” (Frontiers in Immunology, 2022).

The half-life is the time needed for the level to fall by half in the phase considered. For orientation: IC50 means the concentration needed to halve the response being measured.

Data set [1] relates to Japanese patients with NSCLC. Further details: method as in PMID 30718102. As to conditions: cited from earlier work.
On the set-up of data set [2]: method as in PMID 27734291. As to conditions: cited from earlier work.
In data set [3] the test system is MET. Details: method as in PMID 18089725. As to conditions: HOP92 cells; read-out: IC50, phosphorylation of MET; cited from earlier work.
Data set [4] deals with MET. Further details: method as in PMID 18089725. As to conditions: NCI-H69 cells; read-out: IC50, phosphorylation of MET; cited from earlier work.
Data set [5] deals with patients. Details: method as in PMID 30833489. As to conditions: 20/50 patients; cited from earlier work.

Where two headings read alike, the source gives them in different places.

Consider `COc1cc2nccc(Oc3ccc(NC(=O)C4(C(=O)Nc5ccc(F)cc5)CC4)cc3)c2cc1OC` [cabozantinib], for which the “patients with ≥ grade 3 AEs” value in data set [1] (16/23 patients) is 70%. In addition, in data set [1], the “AE: diarrhea” value is 78%, the “AE: hypertension” value is recorded as 87%, the “AE: increased alanine aminotransferase” value is given as 95% and the “AE: increased aspartate aminotransferase” value is given as 95%. In data set [1], the “AE: palmar-plantar erythrodysesthesia” value is 100%. Besides, in data set [2], the half-life was 108 to 126 h and the “median Tmax” value is 4 h.

With `C[C@@H](Oc1cc(-c2cnn(C3CCNCC3)c2)cnc1N)c1c(Cl)ccc(F)c1Cl` [crizotinib], the IC50 in data set [3] was 16 nM; in data set [4], […].

For the compound `Cc1ccc(C(=O)Nc2ccc(Oc3cc4cnn(C)c4cc3-c3cn[nH]c3)c(F)c2)c(=O)n1-c1ccc(F)cc1` [merestinib], the “patients with ≥ grade 3 TRAEs” value in data set [5] was 40%.
